The results in this text go back to patent US6737383B1, “Herbicidal oxadiazolidines” (priority 1999, dated 2004).

One test has as its system duck salad. The test can be described thus: Test B flood test duck salad. It is filed as in vivo, Heteranthera limosa. Conditions: for Plant response rating, Ducksalad (0 to 10 scale, 0 is no effect, 10 is complete control): Rate 62 g/ha, Pre-emergence; for Plant response rating, Ducksalad (0 to 10 scale, 0 is no effect, 10 is complete control) / Ducksalad plant response rating (0 to 10 scale, 0 is no effect, 10 is complete control): flood test species, visual evaluation after twelve to sixteen days; for Ducksalad plant response rating (0 to 10 scale, 0 is no effect, 10 is complete control): under heading Pre-emergence. As to the method:
(§1) At the same time, these crop and weed species were also treated with postemergence applications of test chemicals formulated in the same manner. Plants ranged in height from 2 to 18 cm (1- to 4-leaf stage) for postemergence treatments. Plant species in the flood test consisted of rice (Oryza sativa), smallflower flatsedge (Cyperus difformis), duck salad (Heteranthera limosa) and bamyardgrass (Echinochloa crus-galli) grown to the 2-leaf stage for testing. Treated plants and controls were maintained in a greenhouse for twelve to sixteen days, after which all species were compared to controls and visually evaluated. Plant response ratings, summarized in Table B, are based on a scale of 0 to 10 where 0 is no effect and 10 is complete control. A dash (−) response means no test result.

The subject of a further test is smallflower flatsedge. The test can be described thus: Test B flood test smallflower flatsedge. Conditions: for Plant response rating, S. Flatsedge (0 to 10 scale, 0 is no effect, 10 is complete control): Rate 62 g/ha, Pre-emergence; for Plant response rating, S. Flatsedge (0 to 10 scale, 0 is no effect, 10 is complete control) / S. Flatsedge plant response rating (0 to 10 scale, 0 is no effect, 10 is complete control): flood test species, visual evaluation after twelve to sixteen days; for S. Flatsedge plant response rating (0 to 10 scale, 0 is no effect, 10 is complete control): under heading Pre-emergence. It is filed as in vivo, Cyperus difformis. The method in brief:
(§2)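 Read-out is a visual response score from 0 (no effect) to 10 (complete control), assigned by comparison with untreated controls. Treatment was applied at the 2-leaf stage, and plants stayed in the greenhouse for twelve to sixteen days before scoring.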

A further test concerns bamyardgrass. The test is described as follows: Test B flood test barnyardgrass. It is filed as in vivo, Echinochloa crus-galli. The conditions noted are these: for Plant response rating, Barnyardgrass (0 to 10 scale, 0 is no effect, 10 is complete control): Rate 62 g/ha, Pre-emergence; for Plant response rating, Barnyardgrass (0 to 10 scale, 0 is no effect, 10 is complete control) / Barnyardgrass plant response rating (0 to 10 scale, 0 is no effect, 10 is complete control): flood test species, visual evaluation after twelve to sixteen days; for Barnyardgrass plant response rating (0 to 10 scale, 0 is no effect, 10 is complete control): under heading Pre-emergence. The method in brief:
as §2

A further test concerns rice. The test is described as follows: Test B flood test rice. In kind it is in vivo, Oryza sativa. The conditions noted are these: for Plant response rating, Rice (0 to 10 scale, 0 is no effect, 10 is complete control): Rate 62 g/ha, Pre-emergence. How it is done: as §1
[1] abbreviates: Rate 250 g/ha, Pre-emergence (flood test species), scale 0 to 10, 0 is no effect, 10 is complete control.
Setting [2] is: Rate 500 g/ha, Pre-emergence section of Table B, 0 to 10 scale (0 no effect, 10 complete control).
The mark [3] stands for this setting: flood test species, visual evaluation after twelve to sixteen days.
Where [4] appears, read: Rate 125 g/ha, Pre-emergence section (flood test species), scale 0 to 10, 0 no effect, 10 complete control.

For the compound `CCCCCCn1c(=O)on(C(=O)N(c2ccc(Cl)cc2)C(C)C)c1=O` [Compound 529], the “Plant response rating, Ducksalad (0 to 10 scale, 0 is no effect, 10 is complete control)” value in the test on duck salad was 0. Further, the “Ducksalad plant response rating (0 to 10 scale, 0 is no effect, 10 is complete control)” value in the test with duck salad (Rate 125 g/ha) stood at 0. For the same compound, the “Ducksalad plant response rating” value in the test with duck salad (setting [1]) and in the test with duck salad (setting [2]) was 0 each time. Further, the “Plant response rating, S. Flatsedge (0 to 10 scale, 0 is no effect, 10 is complete control)” value in the test on smallflower flatsedge was found to be 0. Besides, the “S. Flatsedge plant response rating (0 to 10 scale, 0 is no effect, 10 is complete control)” value in the test with smallflower flatsedge (Rate 125 g/ha) stood at 0. In addition, the “S. Flatsedge plant response rating” value with smallflower flatsedge (setting [1]) and in the test with smallflower flatsedge (setting [2]) was 0 throughout. For the same compound, the “Plant response rating, Barnyardgrass (0 to 10 scale, 0 is no effect, 10 is complete control)” value in the test with bamyardgrass was found to be 0. Besides, the “Barnyardgrass plant response rating (0 to 10 scale, 0 is no effect, 10 is complete control)” value in the test on bamyardgrass (Rate 125 g/ha) was 0. In addition, the “Barnyardgrass plant response rating” value in the test on bamyardgrass (setting [1]) stood at 0; in the test on bamyardgrass (setting [2]), 2.
For `CC(C)N(C(=O)n1oc(=O)n(CC2CC2)c1=O)c1ccc(Cl)cc1` [Compound 539], the “Plant response rating, Ducksalad (0 to 10 scale, 0 is no effect, 10 is complete control)” value in the test on duck salad is recorded as 0. Further, the “Ducksalad plant response rating (0 to 10 scale, 0 is no effect, 10 is complete control)” value in the test on duck salad (Rate 125 g/ha) is given as 0. The “Ducksalad plant response rating” value with duck salad (setting [1]) and in the test on duck salad (setting [2]) was 0 each time. Further, the “Plant response rating, Rice (0 to 10 scale, 0 is no effect, 10 is complete control)” value in the test with rice (setting [3]) is 0. Besides, the “Rice plant response rating (0 to 10 scale, 0 is no effect, 10 is complete control)” value in the test on rice (Rate 125 g/ha, under heading Pre-emergence, flood test species, visual evaluation after twelve to sixteen days) was found to be 0. Besides, the “Rice plant response rating” value with rice (setting [1]) and with rice (setting [2]) was 0 throughout. In the test with smallflower flatsedge, the “Plant response rating, S. Flatsedge (0 to 10 scale, 0 is no effect, 10 is complete control)” value turned out to be 0. Besides, the “S. Flatsedge plant response rating (0 to 10 scale, 0 is no effect, 10 is complete control)” value in the test with smallflower flatsedge (Rate 125 g/ha) was 0. For the same compound, the “S. Flatsedge plant response rating” value in the test with smallflower flatsedge (setting [1]) and with smallflower flatsedge (setting [2]) was 0 throughout. Besides, the “Plant response rating, Barnyardgrass (0 to 10 scale, 0 is no effect, 10 is complete control)” value in the test with bamyardgrass is listed as 0. For the same compound, the “Barnyardgrass plant response rating (0 to 10 scale, 0 is no effect, 10 is complete control)” value in the test on bamyardgrass (Rate 125 g/ha) was found to be 0. Besides, the “Barnyardgrass plant response rating” value with bamyardgrass (setting [1]) and in the test with bamyardgrass (setting [2]) was 0 each time.
Take `CC(C)N(C(=O)n1oc(=O)n(C(C)C(=O)N2CCOCC2)c1=O)c1ccc(F)cc1` (centres unmarked) [Compound 705]: the “Plant response rating, Ducksalad (0 to 10 scale, 0 is no effect, 10 is complete control)” value with duck salad stood at 0. Besides, the “Ducksalad plant response rating” value in the test on duck salad (setting [4]), in the test with duck salad (setting [1]) and in the test on duck salad (setting [2]) was 0 each time. For the same compound, in the test on rice (setting [3]), the “Plant response rating, Rice (0 to 10 scale, 0 is no effect, 10 is complete control)” value is 0. The results for the “Rice plant response rating” value with rice (setting [4]), in the test on rice (setting [1]) and with rice (setting [2]) were 1, 2 and 2, respectively. The “Plant response rating, S. Flatsedge (0 to 10 scale, 0 is no effect, 10 is complete control)” value in the test on smallflower flatsedge came to 0. Moreover, the “S. Flatsedge plant response rating” value with smallflower flatsedge (setting [4]), in the test on smallflower flatsedge (setting [1]) and in the test with smallflower flatsedge (setting [2]) was 0 in each case. In addition, in the test on bamyardgrass, the “Plant response rating, Barnyardgrass (0 to 10 scale, 0 is no effect, 10 is complete control)” value was 0. Besides, the results for the “Barnyardgrass plant response rating” value with bamyardgrass (setting [4]), in the test on bamyardgrass (setting [1]) and with bamyardgrass (setting [2]) were 0, 2 and 2, respectively.
